Test results from the supplement of paper PMC10307832.

How the values were obtained:
Experiment in all cases: relative viability (nuclei count vs DMSO), 5 days (fraction); higher = more cells survive
NVP-TAE684 + Trametinib = compound: COc1cc(N2CCC(N3CCN(C)CC3)CC2)ccc1Nc1ncc(Cl)c(Nc2ccccc2S(=O)(=O)C(C)C)n1 [NVP-TAE684] + CC(=O)Nc1cccc(-n2c(=O)n(C3CC3)c(=O)c3c(Nc4ccc(I)cc4F)n(C)c(=O)c(C)c32)c1 [Trametinib] (partner 0.02 µM)
In short: (§1)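 Medians of duplicate plates are given as relative viability. That measure is the nuclei count in treated wells divided by the count in vehicle wells. Counts were taken on 4× images of lung cancer cell lines in 1536-well plates, 5 days after pin-tool dosing the day after seeding with one drug alone or a fixed anchor-drug dose plus five library-drug doses (not always all listed) in √10 steps.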

NVP-TAE684 + OSI-027 = compound: COc1cc(N2CCC(N3CCN(C)CC3)CC2)ccc1Nc1ncc(Cl)c(Nc2ccccc2S(=O)(=O)C(C)C)n1 [NVP-TAE684] + COc1cccc2cc(-c3nc([C@H]4CC[C@H](C(=O)O)CC4)n4ncnc(N)c34)[nH]c12 [OSI-027] (partner 0.5 µM)
In short: as §1

NVP-TAE684 + Pictilisib = compound: COc1cc(N2CCC(N3CCN(C)CC3)CC2)ccc1Nc1ncc(Cl)c(Nc2ccccc2S(=O)(=O)C(C)C)n1 [NVP-TAE684] + CS(=O)(=O)N1CCN(Cc2cc3nc(-c4cccc5[nH]ncc45)nc(N4CCOCC4)c3s2)CC1 [Pictilisib] (partner 1 µM)
In short: as §1

NVP-TAE684 + Olaparib = compound: COc1cc(N2CCC(N3CCN(C)CC3)CC2)ccc1Nc1ncc(Cl)c(Nc2ccccc2S(=O)(=O)C(C)C)n1 [NVP-TAE684] + O=C(c1cc(Cc2n[nH]c(=O)c3ccccc23)ccc1F)N1CCN(C(=O)C2CC2)CC1 [Olaparib] (partner 8 µM)
In short: as §1

Vandetanib + Pictilisib = compound: COc1cc2/c(=N/c3ccc(Br)cc3F)nc[nH]c2cc1OCC1CCN(C)CC1 [Vandetanib] + CS(=O)(=O)N1CCN(Cc2cc3nc(-c4cccc5[nH]ncc45)nc(N4CCOCC4)c3s2)CC1 [Pictilisib] (partner 1 µM)
In short: as §1

Cell Line	relative viability (NVP-TAE684 + Trametinib; first compound 0.2 µM)	relative viability (NVP-TAE684 + Trametinib; first compound 0.6325 µM)	relative viability (NVP-TAE684 + Trametinib; first compound 2 µM)	relative viability (NVP-TAE684 + OSI-027; first compound 0.2 µM)	relative viability (NVP-TAE684 + OSI-027; first compound 0.6325 µM)	relative viability (NVP-TAE684 + OSI-027; first compound 2 µM)	relative viability (NVP-TAE684 + Pictilisib; first compound 0.2 µM)	relative viability (NVP-TAE684 + Pictilisib; first compound 0.6325 µM)	relative viability (NVP-TAE684 + Pictilisib; first compound 2 µM)	relative viability (NVP-TAE684 + Olaparib; first compound 0.2 µM)	relative viability (NVP-TAE684 + Olaparib; first compound 0.6325 µM)	relative viability (NVP-TAE684 + Olaparib; first compound 2 µM)	relative viability (Vandetanib + Pictilisib; first compound 0.02 µM)	relative viability (Vandetanib + Pictilisib; first compound 0.06325 µM)	relative viability (Vandetanib + Pictilisib; first compound 0.2 µM)	relative viability (Vandetanib + Pictilisib; first compound 0.6325 µM)	relative viability (Vandetanib + Pictilisib; first compound 2 µM)
SK-LU-1	0.42	0.445	0.383	0.31	0.37	0.181	0.501	0.524	0.444	0.483	0.425	0.352	0.657	0.43	0.509	0.663	0.532
LCLC-97TM1	0.202	0.219	0.09	0.52	0.473	0.14	0.112	0.145	0.148	0.443	0.326	0.154	0.282	0.2	0.206	0.171	0.188
NCI-H1915	0.298	0.304	0.507	0.678	0.668	0.611	0.98	0.932	0.874	0.295	0.281	0.228	0.858	0.901	0.946	0.944	0.888
NCI-H358	0.147	0.107	0.0912	0.718	0.616	0.15	0.305	0.261	0.219	0.637	0.579	0.275	0.285	0.328	0.331	0.316	0.241
LK-2		0.673	0.326	0.178	0.17	0.168	0.649	0.472	0.343	0.698	0.698	0.451	0.585	0.652	0.531	0.559	0.478
EPLC-272H	0.296	0.25	0.243	0.227	0.251	0.203	0.285		0.184	0.321	0.577	0.162	0.363	0.311	0.121	0.355	0.166
A-427	0.699	0.627	0.462	0.548	0.396	0.285	0.735		0.652	0.814	0.674	0.631	0.676	0.626	0.762	0.674	0.777
NCI-H1755	0.769	0.846	0.729	0.636	0.672	0.453	0.5	0.414	0.408	0.926	0.965		0.427	0.381	0.254	0.426	0.369
NCI-H838	0.566	0.407	0.202	0.389	0.324	0.175	0.408	0.356	0.235	0.737	0.611	0.252	0.461	0.357	0.457	0.426	0.415
ABC-1				0.393	0.419	0.179	0.546	0.493	0.298	0.636	0.692	0.37	0.794	0.673	0.866	0.664	0.765
NCI-H2228	0.312	0.249	0.23	0.247	0.137	0.16	0.281	0.167	0.223	0.36	0.384	0.109	0.383	0.402		0.399	0.297
NCI-H1793	0.468	0.303	0.414	0.267	0.274	0.204	0.426	0.326	0.519	1.01	0.841	0.508	0.338	0.309	0.27	0.341	0.379
NCI-H1563				0.736	0.678	0.596	0.597	0.63	0.495				0.62	0.707	0.623	0.656	0.657
NCI-H661	0.552	0.616	0.563	0.717	0.821	0.585	0.449	0.426	0.429	0.771	0.788	0.625	0.381		0.373	0.382	0.347
EKVX	0.285	0.241	0.334	0.577	0.698	0.521	0.437	0.354	0.319	0.868	0.678	0.464	0.404	0.396	0.404	0.363	0.213
NCI-H1623				0.337	0.402	0.34											
NCI-H2342	0.77	0.935	0.638		0.585	0.34				0.419	0.427	0.3					
EBC-1							0.364	0.348	0.212	0.713	0.661	0.55	0.465	0.345	0.404	0.359	0.242
NCI-H1299							0.601	0.707	0.364	0.979	1.02	0.682	0.788	0.677	0.906	0.674	0.604
Calu-6							0.954	0.741	0.444	0.657	0.519	0.357	0.938	0.9	0.881	0.807	0.907
NCI-H1703							0.225	0.243	0.172	0.368	0.413	0.14	0.244	0.217	0.212	0.211	0.231
NCI-H1648	0.395	0.433	0.284	0.255	0.226	0.216				0.45	0.863	0.287					
